BindingDB's records for doi:10.1021/jm030084x (University of Illinois At Urbana-Champaign, 2003)

Biological target: farnesyl diphosphate synthase (Leishmania major)
Assay: Inhibitory activity against Leishmania major Farnesyl-diphosphatesynthase (FPP synthase)

## Cc1cc(C)nc(NC(P(=O)(O)O)P(=O)(O)O)c1 [(4,6-dimethyl-2-pyridinyl)-aminomethylene-1,1-bisphosphonate]
  IC50: > 100 µM

## O=P(O)(O)C(Nc1ccc(Cl)nc1)P(=O)(O)O [[(6-Chloro-pyridin-3-ylamino)-phosphono-methyl]-phosphonic acid]
  IC50: > 100 µM
